The values that follow come from US20230167114A1, “MACROCYCLIC JAK INHIBITOR AND USE THEREOF” (Biopolar Hongye (Guangdong) Pharmaceutical Co., Ltd., priority 2020, published 2023).

What all share (format): biochemical
The target of one test is JAK1 (Homo sapiens, UniProt P23458). The test can be described thus: JAK kinase activity, homogeneous time-resolved fluorescence (JAK1 reaction system). Particulars: ATP 2 μM, JAK1 protein 0.2 ng/μL; read-out: JAK 1 activity. In outline: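 HTRF readout (665/615 nm ratio) with 0.2 ng/μL JAK1 and 2 μM ATP in 50 mM Hepes pH 7.0, 5 mM MgCl2, 1 mM DTT and 0.01% BSA. The reaction ran 1 h, then anti-phosphosubstrate antibody and EDTA were added. IC50 came from a Hill-slope logistic fit.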

The target in a further test is JAK2 (Homo sapiens, UniProt O60674). In words: JAK kinase activity, homogeneous time-resolved fluorescence (JAK2 reaction system). Particulars: ATP 2 μM, JAK2 protein 0.01 ng/μL. Summed up: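 HTRF reaction with 0.01 ng/µL JAK2 and 2 µM ATP, run 1 h in 50 mM HEPES pH 7.0, 5 mM MgCl2, 1 mM DTT, 0.01% BSA. It was stopped with EDTA detection buffer containing anti-phosphosubstrate antibody and XL-615. The 665/615 ratio was read against no-enzyme and no-compound wells, with IC50 from a Hill-slope fit.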

The target of the next test is T1, JAK3 (Homo sapiens, UniProt P52333).
T1 sequence (P52333 1-1124): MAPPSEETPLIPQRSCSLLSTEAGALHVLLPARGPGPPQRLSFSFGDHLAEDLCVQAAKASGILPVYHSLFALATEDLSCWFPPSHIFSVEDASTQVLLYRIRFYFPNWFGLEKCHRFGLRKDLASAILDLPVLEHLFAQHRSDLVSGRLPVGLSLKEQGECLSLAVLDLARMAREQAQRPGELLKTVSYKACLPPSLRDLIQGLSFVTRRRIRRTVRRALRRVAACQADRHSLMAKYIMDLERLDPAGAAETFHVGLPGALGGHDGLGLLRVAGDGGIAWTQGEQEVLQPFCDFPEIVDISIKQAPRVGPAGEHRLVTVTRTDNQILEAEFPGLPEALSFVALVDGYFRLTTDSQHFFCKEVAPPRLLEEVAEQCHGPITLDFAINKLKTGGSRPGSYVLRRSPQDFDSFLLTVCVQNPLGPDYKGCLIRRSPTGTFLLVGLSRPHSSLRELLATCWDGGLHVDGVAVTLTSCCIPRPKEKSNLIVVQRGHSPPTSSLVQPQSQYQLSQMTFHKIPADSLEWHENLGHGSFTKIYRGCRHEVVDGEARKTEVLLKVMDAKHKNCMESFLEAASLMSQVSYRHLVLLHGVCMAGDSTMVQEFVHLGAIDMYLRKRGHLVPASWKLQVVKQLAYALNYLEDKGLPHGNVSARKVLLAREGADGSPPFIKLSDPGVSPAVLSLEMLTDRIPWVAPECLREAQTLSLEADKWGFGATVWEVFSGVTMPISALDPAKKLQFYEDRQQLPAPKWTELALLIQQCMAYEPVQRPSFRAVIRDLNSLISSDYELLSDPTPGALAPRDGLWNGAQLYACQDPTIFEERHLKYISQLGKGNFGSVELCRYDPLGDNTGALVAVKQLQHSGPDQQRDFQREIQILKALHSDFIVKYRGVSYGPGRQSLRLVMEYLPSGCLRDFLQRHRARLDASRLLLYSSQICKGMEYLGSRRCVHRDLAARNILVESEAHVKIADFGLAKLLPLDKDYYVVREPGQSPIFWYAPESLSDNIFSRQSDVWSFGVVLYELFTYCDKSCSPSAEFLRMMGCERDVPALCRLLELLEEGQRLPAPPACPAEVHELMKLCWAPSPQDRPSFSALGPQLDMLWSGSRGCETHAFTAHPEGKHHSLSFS
In words: JAK kinase activity, homogeneous time-resolved fluorescence (JAK3 reaction system). To be noted: ATP 2 μM, JAK3 protein 0.04 ng/μL; read-out: JAK 3 activity. Summed up: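 JAK3 (0.04 ng/μL) was reacted 1 h with substrate, 2 μM ATP and compound in 50 mM Hepes pH 7.0, 5 mM MgCl2, 1 mM DTT, 0.01% BSA. Phospho-specific antibody and XL-615 with EDTA were added, and the 665/615 nm ratio was referenced to no-enzyme and no-compound wells. IC50 came from a Hill-equation fit.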

For a further test, the target named is TYK2 (Homo sapiens, UniProt P29597). The test can be described thus: JAK kinase activity, homogeneous time-resolved fluorescence (TYK2 reaction system). To be noted: ATP 2 μM, TYK2 protein 0.2 ng/μL; read-out: TYK 2 activity. In outline:
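Homogeneous time-resolved fluorescence kinase assay with 0.2 ng/μL TYK2 and 2 μM ATP in 50 mM Hepes pH 7.0, 5 mM MgCl2, 1 mM DTT and 0.01% BSA, reacted for 1 h. Phospho-substrate antibody with EDTA-containing detection buffer was added, and the 665/615 nm emission ratio was read. IC50 came from a Hill-slope logistic fit.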

Sequence of JAK2 (O60674 whole entry): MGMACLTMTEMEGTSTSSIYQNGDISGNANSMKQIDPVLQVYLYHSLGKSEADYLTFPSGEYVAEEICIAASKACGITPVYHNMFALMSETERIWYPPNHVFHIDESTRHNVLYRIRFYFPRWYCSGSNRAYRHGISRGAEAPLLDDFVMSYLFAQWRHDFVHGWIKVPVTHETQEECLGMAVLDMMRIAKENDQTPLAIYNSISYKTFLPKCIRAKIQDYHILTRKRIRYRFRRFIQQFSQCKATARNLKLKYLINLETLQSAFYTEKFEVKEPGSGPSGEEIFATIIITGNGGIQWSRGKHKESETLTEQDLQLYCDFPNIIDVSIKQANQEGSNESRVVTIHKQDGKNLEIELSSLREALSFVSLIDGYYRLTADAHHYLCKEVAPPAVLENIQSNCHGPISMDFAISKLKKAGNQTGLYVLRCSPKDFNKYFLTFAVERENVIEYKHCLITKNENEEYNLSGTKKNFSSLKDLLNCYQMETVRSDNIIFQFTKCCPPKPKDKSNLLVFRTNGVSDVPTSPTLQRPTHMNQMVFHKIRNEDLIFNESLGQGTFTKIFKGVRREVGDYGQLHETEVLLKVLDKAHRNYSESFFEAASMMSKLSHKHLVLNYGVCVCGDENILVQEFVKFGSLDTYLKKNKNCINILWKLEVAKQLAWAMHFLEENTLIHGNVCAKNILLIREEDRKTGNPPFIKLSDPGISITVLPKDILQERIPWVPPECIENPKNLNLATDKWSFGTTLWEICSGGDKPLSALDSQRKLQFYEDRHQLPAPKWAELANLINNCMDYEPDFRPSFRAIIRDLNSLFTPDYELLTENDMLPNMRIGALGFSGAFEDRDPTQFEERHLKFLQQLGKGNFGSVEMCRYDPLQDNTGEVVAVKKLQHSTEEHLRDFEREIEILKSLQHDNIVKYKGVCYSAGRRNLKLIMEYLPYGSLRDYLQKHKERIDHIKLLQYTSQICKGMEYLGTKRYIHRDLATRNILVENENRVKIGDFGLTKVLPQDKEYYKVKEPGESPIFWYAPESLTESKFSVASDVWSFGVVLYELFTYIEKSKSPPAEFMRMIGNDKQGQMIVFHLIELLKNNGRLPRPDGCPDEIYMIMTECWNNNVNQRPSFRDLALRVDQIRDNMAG
Sequence of TYK2 (P29597 whole entry): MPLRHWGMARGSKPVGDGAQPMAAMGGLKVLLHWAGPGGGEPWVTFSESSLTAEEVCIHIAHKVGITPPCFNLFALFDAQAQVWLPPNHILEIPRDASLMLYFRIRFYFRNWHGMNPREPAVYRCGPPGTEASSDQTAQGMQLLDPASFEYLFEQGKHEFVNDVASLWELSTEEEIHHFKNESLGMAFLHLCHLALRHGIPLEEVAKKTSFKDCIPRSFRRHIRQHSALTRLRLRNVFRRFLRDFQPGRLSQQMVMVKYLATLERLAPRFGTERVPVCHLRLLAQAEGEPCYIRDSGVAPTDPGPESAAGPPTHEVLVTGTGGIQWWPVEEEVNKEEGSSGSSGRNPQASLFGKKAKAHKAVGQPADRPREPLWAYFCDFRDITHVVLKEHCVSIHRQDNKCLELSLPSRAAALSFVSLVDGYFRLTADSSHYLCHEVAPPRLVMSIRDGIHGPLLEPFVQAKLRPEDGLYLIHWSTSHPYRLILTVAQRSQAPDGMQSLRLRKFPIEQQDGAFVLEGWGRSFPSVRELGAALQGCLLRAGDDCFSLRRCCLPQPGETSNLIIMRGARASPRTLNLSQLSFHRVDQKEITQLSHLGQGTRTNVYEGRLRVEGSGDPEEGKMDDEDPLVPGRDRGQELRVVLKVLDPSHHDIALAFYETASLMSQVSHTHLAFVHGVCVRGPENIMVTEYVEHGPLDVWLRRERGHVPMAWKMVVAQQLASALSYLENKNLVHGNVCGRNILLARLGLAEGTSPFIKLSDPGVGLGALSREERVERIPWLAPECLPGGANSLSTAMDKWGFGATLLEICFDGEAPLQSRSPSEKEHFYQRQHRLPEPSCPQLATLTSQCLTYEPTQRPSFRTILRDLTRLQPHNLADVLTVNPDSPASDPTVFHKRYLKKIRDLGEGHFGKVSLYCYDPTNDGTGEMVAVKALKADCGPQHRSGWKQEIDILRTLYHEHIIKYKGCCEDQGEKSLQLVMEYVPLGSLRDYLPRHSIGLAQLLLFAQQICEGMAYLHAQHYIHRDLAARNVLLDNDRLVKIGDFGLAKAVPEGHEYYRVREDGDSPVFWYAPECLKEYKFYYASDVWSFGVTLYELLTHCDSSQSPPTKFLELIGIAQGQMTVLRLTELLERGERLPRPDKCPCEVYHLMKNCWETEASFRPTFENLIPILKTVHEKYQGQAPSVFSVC
Sequence of JAK1 (P23458 whole entry): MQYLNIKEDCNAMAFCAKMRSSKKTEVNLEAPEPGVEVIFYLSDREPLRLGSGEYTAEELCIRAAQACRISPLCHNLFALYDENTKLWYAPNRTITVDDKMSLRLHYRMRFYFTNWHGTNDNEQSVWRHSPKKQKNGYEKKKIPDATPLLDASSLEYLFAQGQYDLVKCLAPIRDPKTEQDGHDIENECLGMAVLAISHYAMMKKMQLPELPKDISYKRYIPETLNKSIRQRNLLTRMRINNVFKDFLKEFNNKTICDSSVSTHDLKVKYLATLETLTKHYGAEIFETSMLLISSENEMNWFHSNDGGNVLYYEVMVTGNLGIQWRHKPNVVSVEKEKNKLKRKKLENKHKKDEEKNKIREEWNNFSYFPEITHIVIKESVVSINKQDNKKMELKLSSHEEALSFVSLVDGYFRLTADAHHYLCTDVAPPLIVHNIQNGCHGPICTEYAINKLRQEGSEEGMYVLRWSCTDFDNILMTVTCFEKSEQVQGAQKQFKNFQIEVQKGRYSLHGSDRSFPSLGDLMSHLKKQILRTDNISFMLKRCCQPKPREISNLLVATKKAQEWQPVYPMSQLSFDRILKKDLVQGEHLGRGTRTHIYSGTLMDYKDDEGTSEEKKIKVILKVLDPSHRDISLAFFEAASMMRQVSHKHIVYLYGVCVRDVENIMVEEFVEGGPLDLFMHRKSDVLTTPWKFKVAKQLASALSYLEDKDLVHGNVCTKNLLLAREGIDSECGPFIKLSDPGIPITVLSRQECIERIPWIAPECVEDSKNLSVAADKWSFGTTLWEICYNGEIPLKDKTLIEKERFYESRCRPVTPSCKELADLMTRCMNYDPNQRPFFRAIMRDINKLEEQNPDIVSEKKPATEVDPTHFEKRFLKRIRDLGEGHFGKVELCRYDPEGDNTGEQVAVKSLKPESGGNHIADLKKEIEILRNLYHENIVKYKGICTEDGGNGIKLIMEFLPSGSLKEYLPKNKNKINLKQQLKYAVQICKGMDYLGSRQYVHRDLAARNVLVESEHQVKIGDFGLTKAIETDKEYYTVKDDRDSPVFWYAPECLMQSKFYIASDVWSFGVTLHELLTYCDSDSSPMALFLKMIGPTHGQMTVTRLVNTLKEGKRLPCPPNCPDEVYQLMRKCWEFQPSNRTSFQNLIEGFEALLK

For `Cc1cnc2nc1Nc1cc(ccc1O)CCNC(=O)c1ccc(cc1)-c1cnc(F)c(c1)N2` [Compound 48, 2^6-fluoro-6^6-hydroxy-4^5-methyl-3,5,9-triaza-4(2,4)-pyrimidina-2(3,5)-pyridina-1-2,(1,4),6(1,3)-dibenzenacyclodecaphan-10-one], the IC50 at JAK1 is 11 to 100 nM; against JAK2, 11 to 100 nM; at JAK3, 101 to 1000 nM; on TYK2, 101 to 1000 nM.
